Measurements as given in US20060216238A1, “Compositions and methods for targeting or imaging a tissue in a vertebrate subject” (priority 2005, published 2006).

How the values were obtained:
[1] = system: cowpea plants; assay: Infectivity of CPMV following incubation with blood plasma or serum; set-up: species or system Vigna unguiculata; conditions: day 7
Description: Infectivity of CPMV following incubation with blood. Whole blood samples were obtained from mice following cardiac puncture either with or without heparin. Samples were incubated at 4° C. overnight and then spun at 15,000 rpm for 10 minutes. Blood plasma or serum were recovered and incubated with CPMV (15 ug) in a one to one (v/v) ratio at 37° C. for 30 minutes while a control CPMV sample was incubated with PBS. Primary leaves from 7-day-old cowpea plants were then bruised with carborundum and inoculated with samples (at a concentration of 3 μg CPMV per leaf, or 300-fold more virus than is required to produce lesions) and observed daily for infection-induced mosaic symptoms.

[2] = RT-PCR detection of CPMV RNA in tissues of mice inoculated orally (gavage); conditions: for CPMV RNA detected in bone marrow, mice positive/examined / CPMV RNA detected in brain, mice positive/examined / CPMV RNA detected in duodenum, mice positive/examined / CPMV RNA detected in ileum, mice positive/examined / CPMV RNA detected in jejunum, mice positive/examined / CPMV RNA detected in kidney, mice positive/examined / CPMV RNA detected in liver, mice positive/examined / CPMV RNA detected in lung, mice positive/examined / CPMV RNA detected in spleen, mice positive/examined / CPMV RNA detected in stomach, mice positive/examined: oral

## cowpea mosaic virus [CPMV]
[1]; 30 minutes at 37° C.
  lesions on primary leaves, plasma-incubated virus: 6 lesions per cm
  lesions on primary leaves, serum-incubated virus: less than 1 lesion per cm^2
[1]
  lesions on primary leaves, control infection (PBS): too many lesions to count
[2]; oral gavage, 4 hours, 1 day, 2 days, 3 days
  CPMV RNA in the blood: detected in the blood of all orally gavaged mice
[2]; D1, Non-perfused
  CPMV RNA detected in bone marrow, mice positive/examined: 3/3
  CPMV RNA detected in brain, mice positive/examined: 3/3
  CPMV RNA detected in duodenum, mice positive/examined: 3/3
  CPMV RNA detected in ileum, mice positive/examined: 3/3
  CPMV RNA detected in jejunum, mice positive/examined: 3/3
  CPMV RNA detected in kidney, mice positive/examined: 3/3
  CPMV RNA detected in liver, mice positive/examined: 3/3
  CPMV RNA detected in lung, mice positive/examined: 3/3
  CPMV RNA detected in spleen, mice positive/examined: 3/3
  CPMV RNA detected in stomach, mice positive/examined: 3/3
[2]; D1, Perfused
  CPMV RNA detected in bone marrow, mice positive/examined: 2/3
  CPMV RNA detected in brain, mice positive/examined: 3/3
  CPMV RNA detected in duodenum, mice positive/examined: 3/3
  CPMV RNA detected in ileum, mice positive/examined: 3/3
  CPMV RNA detected in jejunum, mice positive/examined: 3/3
  CPMV RNA detected in kidney, mice positive/examined: 3/3
  CPMV RNA detected in liver, mice positive/examined: 3/3
  CPMV RNA detected in lung, mice positive/examined: 3/3
  CPMV RNA detected in spleen, mice positive/examined: 3/3
  CPMV RNA detected in stomach, mice positive/examined: 2/3
[2]; D2, Non-perfused
  CPMV RNA detected in bone marrow, mice positive/examined: 0/3
  CPMV RNA detected in brain, mice positive/examined: 1/3
  CPMV RNA detected in duodenum, mice positive/examined: 1/3
  CPMV RNA detected in ileum, mice positive/examined: 3/3
  CPMV RNA detected in jejunum, mice positive/examined: 0/3
  CPMV RNA detected in kidney, mice positive/examined: 0/3
  CPMV RNA detected in liver, mice positive/examined: 3/3
  CPMV RNA detected in lung, mice positive/examined: 1/3
  CPMV RNA detected in spleen, mice positive/examined: 1/3
  CPMV RNA detected in stomach, mice positive/examined: 1/3
[2]; D2, Perfused
  CPMV RNA detected in bone marrow, mice positive/examined: 0/3
  CPMV RNA detected in brain, mice positive/examined: 1/3
  CPMV RNA detected in duodenum, mice positive/examined: 1/3
  CPMV RNA detected in ileum, mice positive/examined: 1/3
  CPMV RNA detected in jejunum, mice positive/examined: 1/3
  CPMV RNA detected in kidney, mice positive/examined: 3/3
  CPMV RNA detected in liver, mice positive/examined: 3/3
  CPMV RNA detected in lung, mice positive/examined: 2/3
  CPMV RNA detected in spleen, mice positive/examined: 0/3
  CPMV RNA detected in stomach, mice positive/examined: 1/3
[2]; D3, Non-perfused
  CPMV RNA detected in bone marrow, mice positive/examined: 1/3
  CPMV RNA detected in brain, mice positive/examined: 3/3
  CPMV RNA detected in duodenum, mice positive/examined: 2/3
  CPMV RNA detected in ileum, mice positive/examined: 2/3
  CPMV RNA detected in jejunum, mice positive/examined: 2/3
  CPMV RNA detected in kidney, mice positive/examined: 1/3
  CPMV RNA detected in liver, mice positive/examined: 2/2
  CPMV RNA detected in lung, mice positive/examined: 1/3
  CPMV RNA detected in spleen, mice positive/examined: 0/3
  CPMV RNA detected in stomach, mice positive/examined: 3/3
[2]; D3, Perfused
  CPMV RNA detected in bone marrow, mice positive/examined: 0/3
  CPMV RNA detected in brain, mice positive/examined: 2/3
  CPMV RNA detected in duodenum, mice positive/examined: 0/2
  CPMV RNA detected in ileum, mice positive/examined: 1/3
  CPMV RNA detected in jejunum, mice positive/examined: 0/2
  CPMV RNA detected in kidney, mice positive/examined: 2/3
  CPMV RNA detected in liver, mice positive/examined: 3/3
  CPMV RNA detected in lung, mice positive/examined: 1/3
  CPMV RNA detected in spleen, mice positive/examined: 0/3
